Test results: the supplement of paper PMC6965134
± gives the standard deviation of the averaged measurements.

Test: TIMS collisional cross section (CCS, N2) of the lipid ion; higher = larger ion cross section
Conditions: ionization mode: positive, one isomer drawn
Protocol: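 Lipid extracts of human plasma (NIST SRM 1950), mouse liver and HeLa cells were separated by nanoflow C18 LC (30 min gradient, 60 °C) and analysed by TIMS-PASEF on a timsTOF Pro in positive ion mode. Ion mobility was calibrated with the Agilent tuning mix and converted to collisional cross sections (Mason–Schamp) in N2 drift gas. Lipids were identified by MS/MS (SimLipid) and manual curation. SMILES are LIPID MAPS representative structures for the annotated lipid.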

| SMILES | TIMS collisional cross section (sample type: Liver) [Å²] | TIMS collisional cross section (sample type: plasma) [Å²] | TIMS collisional cross section (sample type: HeLa) [Å²] |
| --- | --- | --- | --- |
| OC[C@]([H])(OC(CCC/C=C\C/C=C\C/C=C\C/C=C\CCCCC)=O)CO [MG 0:0_20:4_0:0] (ion (formula + adduct): [C23H38O4+H] 1+) | 195.7 | 197.1 | – |
| CCCCCC/C=C\CCCCCCCC(=O)OC[C@H](CO)OC(=O)CCCCCCC/C=C\CCCCCCCC [DG 16:1_18:1_0:0] (ion (formula + adduct): [C37H68O5+NH4] 1+) | 260 | 258.75 ± 1.2 | – |
| CCCCC/C=C\C/C=C\C/C=C\C/C=C\CCCC(=O)O[C@@H](CO)COC(=O)CCCCCCCCCCCCCCCCCC [DG 19:0_20:4_0:0] (ion (formula + adduct): [C42H74O5+NH4] 1+) | 274.3 | – | – |
| CCCCC/C=C\C/C=C\CCCCCCCCCC(=O)O[C@H](COC(=O)CCCCCCCCCCCCCCCCC)COP(=O)([O-])OCC[N+](C)(C)C [PC 18:0_20:2@] (ion (formula + adduct): [C46H88NO8P+H] 1+) | 297.5 | – | – |
| CCCCC/C=C\C/C=C\C/C=C\C/C=C\CCCCCC(=O)O[C@@H](CO)COC(=O)CCCCCCC/C=C\C/C=C\CCCCC [DG 18:2_22:4_0:0] (ion (formula + adduct): [C43H72O5+NH4] 1+) | 270.8 | – | – |
| CCCCCCCC/C=C\CCCCCCCC(=O)O[C@H](COC(=O)/C=C\CCCCCCCCCCCCC)COP(=O)([O-])OCC[N+](C)(C)C [PC 16:1_18:1] (ion (formula + adduct): [C42H80NO8P+H] 1+) | – | – | 286.6 |
| CCCCCCCCCCCCCCCC(=O)OC[C@H](COP(=O)([O-])OCC[N+](C)(C)C)OC(=O)CCCC=O [Oxidized PC 16:0_5:0@] (ion (formula + adduct): [C29H56NO9P+H] 1+) | 245.3 | 245.55 ± 0.35 | – |
| CCCCCC/C=C/CCCCCCCCCC(=O)OC[C@H](CO)OC(=O)CCCCCCCCCCCCCCC [DG 18:1_16:0_0:0] (ion (formula + adduct): [C37H70O5+H] 1+) | – | – | 257.7 |
| CC/C=C\C/C=C\C/C=C\C/C=C\C/C=C\C/C=C\CCC(=O)O[C@H](COC(=O)CCCCCCCCCCCCCC)COP(=O)([O-])OCC[N+](C)(C)C [PC 15:0_22:6] (ion (formula + adduct): [C45H78NO8P+H] 1+) | 288 | – | – |
| CCCCCC/C=C\CCCCCCCC(=O)O[C@H](COC(=O)CCCCCCCCCCCCCC)COP(=O)([O-])OCC[N+](C)(C)C [PC 15:0_16:1] (ion (formula + adduct): [C39H76NO8P+H] 1+) | – | – | 278.9 |
| CCCCC/C=C\C/C=C\CCCCCCCC(=O)OC[C@@H](O)COP(=O)(O)OCCN [LPE 18:2] (ion (formula + adduct): [C23H44NO7P+H] 1+) | 211.45 ± 1.1 | 214.1 | – |
| CC/C=C\C/C=C\C/C=C\C/C=C\C/C=C\C/C=C\CCC(=O)O[C@H](COC(=O)CCCCCCC/C=C\CCCCC)COP(=O)([O-])OCC[N+](C)(C)C [PC 15:1_22:6] (ion (formula + adduct): [C45H76NO8P+H] 1+) | – | 289.8 | – |
| CCCCCCCCCCCCCCCC(=O)O[C@H](COC(=O)CCCCCCCCCCCCC)COP(=O)([O-])OCC[N+](C)(C)C [PC 14:0_16:0] (ion (formula + adduct): [C38H76NO8P+H] 1+) | – | – | 280.6 |
| CC(C)C(=O)C[C@](C)(O)[C@H]1CC[C@H]2[C@@H]3C[C@H](O)[C@H]4C[C@@H](O)CC[C@]4(C)C3=CC[C@@]21C [24-northornasterol A] (ion (formula + adduct): [C26H42O4+H] 1+) | – | 207.8 | – |
| CCCCCCCCCCCCCCCCCCCCCC(=O)OC[C@H](CO)OC(=O)CCCCCCCCCCCCCCCCCCCCC [DG 22:0_22:0_0:0] (ion (formula + adduct): [C47H92O5+NH4] 1+) | – | 301.3 | – |

Next, values leading:

| TIMS collisional cross section (sample type: Liver) [Å²] | TIMS collisional cross section (sample type: plasma) [Å²] | TIMS collisional cross section (sample type: HeLa) [Å²] | SMILES |
| --- | --- | --- | --- |
| – | 299.9 | – | CCC/C=C\CCCCCCCC/C=C/[C@@H](O)[C@H](COP(=O)([O-])OCC[N+](C)(C)C)NC(=O)CCCCCCCCCCCCCCCCCCCCC [SM d18:2_22:0@] (ion (formula + adduct): [C45H89N2O6P+H] 1+) |
| – | – | 268.7 | CCCCCC/C=C\CCCCCCCC(=O)OC[C@H](COP(=O)(O)OCCN)OC(=O)CCCCCCCCCCCCCCC [PE 16:1_16:0] (ion (formula + adduct): [C37H72NO8P+H] 1+) |
| – | – | 290.1 | CCCCCCCC/C=C\C/C=C\CCCCC(=O)O[C@H](COC(=O)CCCCCCC/C=C\CCCCCCCC)COP(=O)([O-])OCC[N+](C)(C)C [PC 18:1_18:2@] (ion (formula + adduct): [C44H82NO8P+H] 1+) |
| 297 | – | – | CC/C=C\C/C=C\C/C=C\C/C=C\C/C=C\CCCCCC(=O)O[C@H](COC(=O)CCCCCCCCC/C=C\CCCCCC)COP(=O)([O-])OCC[N+](C)(C)C [PC 18:1@_22:5] (ion (formula + adduct): [C48H84NO8P+H] 1+) |
| 338.2 | – | – | CCCCC/C=C\C/C=C\C/C=C\C/C=C\CCCC(=O)O[C@H](COC(=O)CCCCCCCCCCCCCCC)COC(=O)CCCCCCCCCCCCCCCCCCCCC [TG 16:0_20:4_22:0] (ion (formula + adduct): [C61H110O6+NH4] 1+) |
| 309.02 ± 0.29 | 309.2 | – | CCCCCC/C=C\CCCCCCCC(=O)OC[C@@H](COC(=O)CCCCCCCCCCCCCC)OC(=O)CCCCCCCCCCCCCCC [TG 15:0_16:0_16:1] (ion (formula + adduct): [C50H94O6+NH4] 1+) |
| 323.5 | – | – | CCCCC/C=C\C/C=C\C/C=C\C/C=C\CCCC(=O)OC[C@@H](COC(=O)CCCCCCC/C=C\CCCCCC)OC(=O)CCCCCCC/C=C\CCCCCCCC [TG 16:1_18:1_20:4] (ion (formula + adduct): [C57H98O6+NH4] 1+) |
| 309.9 | – | – | CCCCC/C=C\CCCCCCCC(=O)OC[C@H](COC(=O)CCCCCCCCCCCCCCCC)OC(=O)CCCCCCC/C=C\CCCCCC [TG 15:1_16:1_17:0] (ion (formula + adduct): [C51H94O6+NH4] 1+) |
| 284 | – | – | CCCCC/C=C\C/C=C\C/C=C\C/C=C\CCCC(=O)O[C@H](COCCCCCCCCCCCCCCCCCC)COP(=O)(O)OCCN [PE O- 18:0@_20:4] (ion (formula + adduct): [C43H80NO7P+H] 1+) |
| – | – | 281.6 | CCCCC/C=C\C/C=C\C/C=C\C/C=C\C/C=C\CCC(=O)O[C@H](COCCCCCCCCCCCCCCCC)COP(=O)(O)OCCN [PE O- 16:0@_22:5] (ion (formula + adduct): [C43H78NO7P+H] 1+) |
| 297.5 | – | – | CCCCC/C=C\C/C=C\CCCCCCCC(=O)O[C@H](COC(=O)CCCCCCCCCCCCCCCCCCC)COP(=O)([O-])OCC[N+](C)(C)C [PC 20:0_18:2] (ion (formula + adduct): [C46H88NO8P+H] 1+) |
| 317.6 | 317.6 | 317.5 | CCCCCCCCCCCCCCCCC(=O)OC[C@@H](COC(=O)CCCCCCCCCCCCCCC)OC(=O)CCCCCCCCCCCCCCC [TG 16:0_16:0_17:0] (ion (formula + adduct): [C52H100O6+NH4] 1+) |
| – | – | 323.2 | CCCCCCC/C=C\CCCCCCCC(=O)OC[C@H](COC(=O)CCCCCCC/C=C\CCCCCCCC)OC(=O)CCCCCCC/C=C\CCCCCCCC [TG 17:1_18:1_18:1] (ion (formula + adduct): [C56H102O6+NH4] 1+) |
| 299.3 | 299 | – | CCCCCCCC/C=C\CCCCCCCCCCCC(=O)N[C@@H](COP(=O)([O-])OCC[N+](C)(C)C)[C@H](O)/C=C/CCCCCCCCCCCCC [SM d18:1_22:1@] (ion (formula + adduct): [C45H89N2O6P+H] 1+) |
| 315.3 | – | – | CCCCCCCC/C=C\CCCCCCCC(=O)OC[C@@H](COC(=O)CCCCCCCCCCCCC)OC(=O)CCCCCCCCCCCCCCCC [TG 14:0_17:0_18:1] (ion (formula + adduct): [C52H98O6+NH4] 1+) |
| – | 325.1 | – | CC/C=C\C/C=C\C/C=C\C/C=C\C/C=C\CCCC(=O)OC[C@@H](COC(=O)CCCCCCCCCCCCCCCCC)OC(=O)CCCCCCC/C=C\C/C=C\C/C=C\CC [TG 18:0_18:3_20:5] (ion (formula + adduct): [C59H98O6+NH4] 1+) |
| 299.9 | – | – | CC/C=C\C/C=C\C/C=C\C/C=C\CCCCCCC(=O)O[C@H](COCCCCCCCCCC/C=C\CCCCCCCC)COP(=O)([O-])OCC[N+](C)(C)C [PC O- 20:1@_20:4] (ion (formula + adduct): [C48H88NO7P+H] 1+) |
| – | 312.8 ± 0.14 | 312.9 | CCCCCC/C=C\CCCCCCCC(=O)O[C@@H](COC(=O)CCCCCCC/C=C\CCCCCCCC)COC(=O)CCCCCCCCCCCCCC [TG 15:0_16:1_18:1] (ion (formula + adduct): [C52H96O6+NH4] 1+) |
